Like-named read-outs stand apart in the source and are kept apart here.
Columns and labels:
[1] = tested on: pentylenetetrazole (PTZ) induced zebrafish seizure model; settings: for concentration at which seizures were reduced: 5 mM PTZ after 4 hour pre-incubation; for seizure count over 15 minutes after PTZ: 5 mM PTZ after 4 hour pre-incubation with compound, n=12, vs DMSO control
Protocol: In these experiments, with reference to FIG. 38, following a four-hour drug incubation period, zebrafish larvae were pre-monitored for normal movements/swimming behavior for 17 minutes. […] At the 17-minute mark, the larvae were treated with PTZ to a final concentration of 5 mM, and the number of seizures per larva and the average number of seizures at each concentration were quantified for 15 minutes following PTZ exposure.
(§1) The experimental protocol uses a 96-well plate, with one zebrafish larva (5 days post-fertilization) in 90 μL of fish water in each well. 10 μL of a 10× solution of compound in 10% DMSO was added to each well to achieve the final concentration shown in the data, and for a final concentration of 1% DMSO. […] The larvae were pre-treated with compound for four hours, followed by a two minute dark stimulation to ensure fish were not sedated, followed by a 15 minutes period of observation for deviation from the anticipated normal movement/swimming behavior. […] After a 15 minute observation period, the larvae were treated with PTZ to a final concentration of 5 mM, and the number of seizures per larva at each concentration quantified for 15 minutes following PTZ treatment. The DanioVision platform (Noldus) was used to perform the animal behavioral recoding and analysis.

zebrafish brain = assay: HT-BAMing whole-brain activity mapping (T-score BAM) by calcium imaging of awake larvae; type: in vivo; settings: for change in brain neural activity (T-score BAM pattern): 10 μM dose, 15-minute perfusion, five larvae per compound
Protocol: The transgenic zebrafish line elav13:GCaMP5G may be maintained in aquaria under standard laboratory conditions (at 28° C. under a cycle of 14 h light, 10 h dark). Larvae of 6-8 dpf were used in the HT-BAMing experiments.
For example, the imaging process may be performed on a fully automated inverted fluorescent microscope (Olympus IX81) equipped with a cooled sCMOS camera (Neo, ANDOR) with a 10× (NA, 0.4) objective. Micro-manager 1.4 may be installed to control the microscope. For high-resolution, confocal imaging and Leica SP8 microscope with a resonant scanner may be used.
Furthermore, a drug perfusion time may be set in which the two syringes may contain different fluid or solutions such that the changes induced by the drug may be recorded. With reference to FIGS. 8 and 9, to generate the functional BAM of a larva in response to a 15-minute period of chemical perfusion, or “treatment”, each larva was imaged over a 10-minute period before and after treatment.
In the experiments performed by the inventors, all drugs or compounds were dissolved in DMSO as a vehicle as ˜10 mM stock solutions. Treatment of the larvae was performed simply by switching the perfusion solution after immobilizing larvae in the microfluidic chip as shown in FIG. 8. Final concentrations of compounds tested in the primary screen were […].
In one example embodiment, the transformation module 106 is arrange to construct the brain activity maps 110 based on counting neural spikes representing changes of brain activity as detected on the images obtained. With reference to FIGS. 1 and 9, readings from multiple focal planes along the Z-axis (ventral direction) were acquired, and accumulated spike counts were derived from the calcium fluctuations of each Z-plane with a lateral resolution of 15.21 μm^2. The difference in spike-counts between the post- and pre-treatment periods was calculated and projected (by summing up along the Z-axis) to a two-dimensional surface to construct a BAM that reflects changes in brain activity and physiology of an individual larva in response to treatment.
With reference also to FIG. 10, a heat map may be used to intuitively display the activation level of the brain. To map brain activity, every collected frame from calcium imaging may be first meshed into small ROIs, each with a size of 15.21 μm^2. The time series of fluorescence signal in each ROI may then be filtered by a high pass filter to remove the interference from illumination fluctuations. The resulting trace may be used to calculate and visualize the spiking activities. For spike counting, a threshold may be applied to detect spikes from neural activity.
In the experiment, for each compound, the spike count data from five independent zebrafish larvae over a 10-minute period before and a 15-minute period after compound treatment. Before comparison across different samples, all the images were first resized and aligned to a uniform zebrafish brain template with the following process: for each raw image, the dark background was first removed to extract the fluorescent brain region, which was then mapped to the standard template via specific transformative adjustments (e.g. rotation, translation) using the brain center-line as a registration landmark and such that the symmetry with respect to the center-line was maximized in the resulted image. Lastly, the fish eye region was further removed by taking the regions within the template for downstream analysis.
A brain activity map (BAM) A=[aij] was then derived by taking the change (increase or decrease) of spike counts in each ROI before (t0) and after chemical treatment (t1), and summed across multiple layers along the Z-axis:
For each compound, BAMs from five individual larvae were acquired following treatment with a 10 μM dose.

[2] = Solubility in water noted when preparing behavioral test concentrations; type: physicochemical
Protocol: as §1

dopamine levels = settings: mice, literature; cited from earlier work
animal models = settings: previously reported; cited from earlier work
[3] = tested on: rat models of induced epilepsy; settings: literature; cited from earlier work
PTZ-larvae = assay: Calcium fluctuation traces and T-score BAM of PTZ-treated larval brains; type: in vivo, zebrafish; settings: 5 mM PTZ; 4 hour treatment at 10 μM
Excerpt: With reference to FIGS. 39C to 39E, Such pharmacological effects could also be observed in the diametrically opposed BAMS from zebrafish treated in the same manner. NNC-711 is thought to principally act through the inhibition of GABA uptake from the synaptic cleft and glia via inhibition of SLC6A1 (solute carrier family 6 member 1; (GAT1)) leading to increased GABA-ergic neurotransmission.

[4] = tested on: kainic-acid induced seizure model; settings: mice, shown previously; cited from earlier work

Question: Which “concentration at which seizures were reduced” value [1] does the source give for CN1CCc2c(c3ccccc3n2Cc2ccc(C(=O)NO)cc2)C1 [Tubastatin A] here?
Answer: 500 µM

Question: And the “seizure count over 15 minutes after PTZ” value [1]?
Answer: hit compounds

Question: What about the “seizure count over 15 minutes after PTZ” value ([1]; listed as Tubastatin-A) of the same molecule?
Answer: reduced seizure count

Question: Which “seizure count over 15 minutes after PTZ” value [1] does the source give for CNC(=O)[C@@H](Cc1ccccc1)N(C)C(=O)[C@@H](Cc1ccc2ccccc2c1)N(C)C(=O)/C=C/CC(C)(C)N [Tabimorelin] here?
Answer: hit compounds

Question: For Nc1nnc(-c2cccc(Cl)c2Cl)c(N)n1 [lamotrigine, Lamotrigine], which “change in brain neural activity (T-score BAM pattern)” value (“change in brain neural activity” below) (zebrafish brain) is on record?
Answer: inhibition of activity across almost the entire brain

Question: With OC(CNc1ccccc1)Cn1c2ccc(Br)cc2c2cc(Br)ccc21 (centres unmarked) [P7C3] as the molecule, how does the solubility ([2]; water / fish water, 1% DMSO) read?
Answer: highly insoluble in water

Question: With CCC1(C)CC(=O)NC1=O (centres unmarked) [ethosuximide, Ethosuximide] as the molecule, how does the “change in brain neural activity” value (zebrafish brain) read?
Answer: inhibition of activity across almost the entire brain

Question: What does the source list for Cc1ncc(CSSCc2cnc(C)c(O)c2CO)c(CO)c1O [Pyrithioxine]?
Answer: change in brain neural activity (T-score BAM pattern) (zebrafish brain): increased activity brain-wide; change of action potential firing rate in selected neuronal cells from a zebrafish brain (zebrafish brain; FIG. 9, after drug treatment): excitation

Question: For COc1ccc(CNC(=O)Nc2ncc([N+](=O)[O-])s2)cc1 [AR-A014418], which solubility ([2]; water / fish water, 1% DMSO) is on record?
Answer: highly insoluble in water

Question: With COc1ccc2cc3[n+](cc2c1OC)CCc1cc2c(cc1-3)OCO2 [berberine, Berberine] as the molecule, how does the “effect on dopamine levels” value (dopamine levels) read?
Answer: increase dopamine levels

Question: Which “change in brain neural activity” value (zebrafish brain) does the source give for NC(=O)N1c2ccccc2CC(=O)c2ccccc21 [oxcarbazepine] here?
Answer: inhibition of activity across almost the entire brain

Question: For OCCCCC#Cc1cncc(OC[C@@H]2CCN2)c1 [Sazetidine], which “seizure count over 15 minutes after PTZ” value [1] is on record?
Answer: hit compounds

Question: Which “change in brain neural activity” value (zebrafish brain) does the source give for NC(=O)N1c2ccccc2C=Cc2ccccc21 [carbamazepine, Carbamazepine] here?
Answer: inhibition of activity across almost the entire brain

Question: With O=c1cc(-c2ccccc2)oc2c(O)c(O)ccc12 [7,8-dihydroxyflavone] as the molecule, how does the solubility [2] read?
Answer: highly insoluble in water

Question: With Oc1noc2c1CCNC2 [Gaboxadol] as the molecule, how does the “anti-epileptic activity in animal models” value (animal models) read?
Answer: anti-epileptic activity

Question: For Cl.O=C(O)C1CCCN(CCC=C(c2ccccc2)c2ccccc2)C1 (centres unmarked) [SKF89976A, SKF 89976A], which “anti-epileptic activity in animal models” value (animal models) is on record?
Answer: anti-epileptic activity

Question: With NC(=O)CCC/N=C(\c1ccc(Cl)cc1)c1cc(F)ccc1O [progabide, Progabide] as the molecule, how does the “change in brain neural activity” value (zebrafish brain) read?
Answer: inhibition of activity across almost the entire brain

Question: With O=C(O)C1=CCCN(CCON=C(c2ccccc2)c2ccccc2)C1 [NNC-711, NNC 711] as the molecule, how does the “concentration at which seizures were reduced” value [1] read?
Answer: 25 µM

Question: And the “anti-epileptic activity in animal models” value (animal models)?
Answer: anti-epileptic activity

Question: And the “anticonvulsant efficacy in rat models of induced epilepsy” value [3]?
Answer: anticonvulsant efficacy

Question: And the “seizure activity in larval brain (calcium fluctuation, T-score BAM)” value (PTZ-larvae)?
Answer: reduction of seizure activity

Question: What does the source list for COc1ccc(/C=C/c2cc(OC)cc(=O)o2)cc1 [Yangonin]?
Answer: seizure count over 15 minutes after PTZ [1]: hit compounds; solubility [2]: highly insoluble in water

Question: With N#Cc1ccccc1-c1cc(-c2ccccn2)cn(-c2ccccc2)c1=O [perampanel, Perampanel] as the molecule, how does the “change in brain neural activity” value (zebrafish brain) read?
Answer: inhibition of activity across almost the entire brain

Question: Which “change in brain neural activity” value (zebrafish brain) does the source give for CC[C@@H](C(N)=O)N1CCCC1=O [levetiracetam, Levetiracetam] here?
Answer: inhibition of activity across almost the entire brain

Question: For CC1=NN=C(c2ccc(N)cc2)c2cc3c(cc2C1)OCO3 [GYKI-52466], which “seizure count over 15 minutes after PTZ” value [1] is on record?
Answer: confirmed

Question: What about the “seizure count over 15 minutes after PTZ” value ([1]; listed as GYKI 54266) of the same molecule?
Answer: hit compounds

Question: And the “anticonvulsant activity in kainic-acid induced seizure model” value [4]?
Answer: anticonvulsant activity

Question: With COc1cccc([C@H](O)C2CCN(CCc3ccc(F)cc3)CC2)c1OC [volinanserin] as the molecule, how does the “seizure count over 15 minutes after PTZ” value [1] read?
Answer: reduced seizures

Question: What about the “seizure count over 15 minutes after PTZ” value ([1]; listed as Volinanerin) of the same molecule?
Answer: hit compounds

Question: What about the solubility [2] of the same molecule?
Answer: highly insoluble in water
